Experimental data: PubChem BioAssay (NCI)
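Interpolation was linear, between the two tested concentrations surrounding the appropriate level; five concentrations were tested over 48 hours in 96-well plates. GI50 marks 50% less growth. The concentration for full growth arrest is given as TGI.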

Tests used:
Assay in all cases: NCI-60 cell line screen, 48 h
[1] = system: CAKI-1 renal
[2] = system: UACC-257 melanoma
[3] = system: UO-31 renal
[4] = system: HOP-92 NSCLC
[5] = system: NCI-H522 lung
[6] = system: OVCAR-3 ovarian
[7] = system: K-562 leukemia
[8] = system: ACHN renal
[9] = system: MALME-3M melanoma
[10] = system: SK-OV-3 ovarian

Q: Which results are given for `N#CNC(N)=NCCO`?
A: TGI [1]: > 100 µM; TGI [2]: > 100 µM; TGI [3]: > 100 µM; TGI [4]: > 100 µM; TGI [5]: > 100 µM; TGI [6]: > 100 µM; TGI [7]: > 100 µM; TGI [8]: > 100 µM; TGI [9]: > 100 µM; TGI [10]: > 100 µM

Q: `O=C(Cn1c(=O)c(-c2ccccc2)nc2ccccc21)c1ccc(Cl)cc1` was tested. Which GI50 [1] did it give?
A: The GI50 was 67.5 µM.

Q: What about the TGI [1] of the same molecule?
A: Its TGI is over 100 µM.

Q: And the GI50 [2]?
A: The GI50 was over 100 µM.

Q: What about the TGI [2] of the same molecule?
A: The TGI was over 100 µM.

Q: What about the GI50 [3] of the same molecule?
A: The GI50 was 80.8 µM.

Q: What about the TGI [3] of the same molecule?
A: The TGI was over 100 µM.

Q: And the GI50 [4]?
A: The GI50 was 27200 nM.

Q: What about the TGI [4] of the same molecule?
A: Its TGI is 65 µM.

Q: And the GI50 [5]?
A: Its GI50 is over 100 µM.

Q: And the TGI [5]?
A: Its TGI is over 100 µM.

Q: And the GI50 [6]?
A: The GI50 was 46.6 µM.

Q: What about the TGI [6] of the same molecule?
A: The TGI was over 100 µM.

Q: What about the GI50 [7] of the same molecule?
A: The GI50 was over 100000 nM.

Q: And the TGI [7]?
A: Its TGI is over 100 µM.

Q: And the GI50 [8]?
A: The GI50 was 38.6 µM.

Q: And the TGI [8]?
A: Its TGI is over 100 µM.

Q: And the GI50 [9]?
A: The GI50 was over 100 µM.

Q: And the TGI [9]?
A: Its TGI is over 100 µM.

Q: And the GI50 [10]?
A: The GI50 was 46.4 µM.

Q: And the TGI [10]?
A: Its TGI is over 100 µM.

Q: What does the source list for `Clc1ccccc1C(n1ncc2ccccc21)n1ncc2ccccc21`?
A: TGI [1]: > 100 µM; TGI [2]: > 100 µM; TGI [3]: 94.4 µM; TGI [4]: > 100 µM; TGI [5]: > 100 µM; TGI [6]: > 100 µM; TGI [7]: > 100 µM; TGI [8]: > 100 µM; TGI [9]: > 100 µM; TGI [10]: > 10 µM

Q: For `NC(N)=NS(=O)(=O)c1ccc(Nc2c3ccccc3nc3c(C(=O)N4CCN(CCO)CC4)cccc23)cc1`, which TGI [1] is on record?
A: The TGI was over 100 µM.

Q: And the TGI [2]?
A: The TGI was over 100 µM.

Q: And the TGI [3]?
A: Its TGI is over 100 µM.

Q: What about the TGI [4] of the same molecule?
A: Its TGI is over 100 µM.

Q: What about the TGI [5] of the same molecule?
A: Its TGI is over 100 µM.

Q: And the TGI [6]?
A: The TGI was over 100 µM.

Q: And the TGI [7]?
A: Its TGI is over 100 µM.

Q: And the TGI [8]?
A: The TGI was over 100 µM.

Q: And the TGI [9]?
A: Its TGI is over 100 µM.

Q: And the TGI [10]?
A: Its TGI is over 100 µM.

Q: How did the GI50 [1] turn out when `Cc1oc2nc[nH]c(=O)c2c1C(=O)/C=C/c1ccc(Cl)cc1` was run?
A: The GI50 was 3.06 µM.

Q: What about the TGI [1] of the same molecule?
A: The TGI was 22.8 µM.

Q: And the GI50 [2]?
A: Its GI50 is 2.72 µM.

Q: And the TGI [2]?
A: Its TGI is 12.7 µM.

Q: What about the GI50 [3] of the same molecule?
A: Its GI50 is 1.09 µM.

Q: What about the TGI [3] of the same molecule?
A: Its TGI is 11 µM.

Q: And the GI50 [4]?
A: Its GI50 is 1470 nM.

Q: And the TGI [4]?
A: The TGI was 7.18 µM.

Q: And the GI50 [5]?
A: Its GI50 is 1.79 µM.

Q: What about the TGI [5] of the same molecule?
A: Its TGI is 5.74 µM.

Q: And the GI50 [6]?
A: The GI50 was 2.3 µM.

Q: What about the TGI [6] of the same molecule?
A: The TGI was 7.83 µM.

Q: And the GI50 [7]?
A: Its GI50 is 1820 nM.

Q: What about the TGI [7] of the same molecule?
A: Its TGI is 11.3 µM.

Q: What about the GI50 [8] of the same molecule?
A: Its GI50 is 1.99 µM.

Q: What about the TGI [8] of the same molecule?
A: The TGI was 6.04 µM.

Q: And the GI50 [9]?
A: The GI50 was 2.13 µM.

Q: What about the TGI [9] of the same molecule?
A: Its TGI is 8.29 µM.

Q: And the GI50 [10]?
A: Its GI50 is 3.09 µM.

Q: What about the TGI [10] of the same molecule?
A: The TGI was 13.8 µM.

Q: For `O=C(Cc1nc2ccccc2c(=O)n1-c1c(Cl)cccc1Cl)c1ccncc1`, which TGI [1] is on record?
A: The TGI was 86.1 µM.

Q: What about the TGI [2] of the same molecule?
A: The TGI was 54.3 µM.

Q: And the TGI [3]?
A: Its TGI is 55 µM.

Q: And the TGI [4]?
A: Its TGI is 69.8 µM.

Q: What about the TGI [5] of the same molecule?
A: The TGI was 49.5 µM.

Q: And the TGI [6]?
A: The TGI was 77.8 µM.

Q: And the TGI [7]?
A: Its TGI is over 100 µM.

Q: What about the TGI [8] of the same molecule?
A: Its TGI is 42.4 µM.

Q: And the TGI [9]?
A: Its TGI is 56.2 µM.

Q: And the TGI [10]?
A: Its TGI is over 100 µM.

Q: What does the source list for `COc1cc(N2CCN(C(C)C)CC2)ccc1Nc1nc(Nc2cccc3ncccc23)c2cc[nH]c2n1`?
A: GI50 [1]: 10 µM; TGI [1]: > 25 µM; GI50 [2]: 3.67 µM; TGI [2]: 8.14 µM; GI50 [3]: 3.79 µM; TGI [3]: 11.6 µM; GI50 [4]: 464 nM; TGI [4]: 2.85 µM; GI50 [5]: 3.97 µM; TGI [5]: 9.05 µM; GI50 [6]: 4.75 µM; TGI [6]: 10.6 µM; GI50 [7]: 5340 nM; TGI [7]: 18.4 µM; GI50 [8]: 7.45 µM; TGI [8]: > 25 µM; GI50 [9]: 4.52 µM; TGI [9]: 9.64 µM; GI50 [10]: 5.58 µM; TGI [10]: 19.1 µM

Q: What does the source list for `O=C1c2ccccc2C(=O)C2C1C1C(=O)c3ccccc3C(=O)C21` (stereo not given)?
A: TGI [1]: > 100 µM; TGI [2]: > 100 µM; TGI [3]: > 100 µM; TGI [4]: > 100 µM; TGI [5]: > 100 µM; TGI [6]: > 100 µM; TGI [7]: > 100 µM; TGI [8]: > 100 µM; TGI [9]: > 100 µM; TGI [10]: > 100 µM

Q: What does the source list for `Cc1c(C(=O)CC(=O)C(=O)Nc2c(C(C)C)cccc2C(C)C)[n+](=O)c2ccccc2n1[O-]`?
A: TGI [1]: 43 µM; TGI [2]: 12.6 µM; TGI [3]: 31.4 µM; TGI [4]: 35.1 µM; TGI [5]: 5.83 µM; TGI [6]: 5.29 µM; TGI [7]: 31.1 µM; TGI [8]: 15.3 µM; TGI [9]: 18.8 µM; TGI [10]: 40.1 µM

Q: `Cc1cc(Cc2cc(C)c(O)c(C)c2)cc(C)c1O` was tested. Which GI50 [1] did it give?
A: Its GI50 is 3.74 µM.

Q: What about the TGI [1] of the same molecule?
A: The TGI was 21.6 µM.

Q: And the GI50 [2]?
A: Its GI50 is 6.94 µM.

Q: What about the TGI [2] of the same molecule?
A: The TGI was 62.2 µM.

Q: And the GI50 [3]?
A: Its GI50 is 7.65 µM.

Q: And the TGI [3]?
A: Its TGI is 96.6 µM.

Q: What about the GI50 [4] of the same molecule?
A: Its GI50 is 4350 nM.

Q: What about the TGI [4] of the same molecule?
A: Its TGI is 29.4 µM.

Q: And the GI50 [5]?
A: Its GI50 is 3.49 µM.

Q: And the TGI [5]?
A: Its TGI is 15.4 µM.

Q: And the GI50 [6]?
A: The GI50 was 3.43 µM.

Q: And the TGI [6]?
A: The TGI was 10.5 µM.

Q: And the GI50 [7]?
A: Its GI50 is 1760 nM.

Q: What about the TGI [7] of the same molecule?
A: Its TGI is 18.8 µM.

Q: And the GI50 [8]?
A: Its GI50 is 12.1 µM.

Q: What about the TGI [8] of the same molecule?
A: Its TGI is over 100 µM.

Q: What about the GI50 [9] of the same molecule?
A: The GI50 was 9.12 µM.

Q: What about the TGI [9] of the same molecule?
A: The TGI was 59.2 µM.

Q: And the GI50 [10]?
A: The GI50 was 6.47 µM.

Q: And the TGI [10]?
A: Its TGI is 52.4 µM.

Q: Which results are given for `C=CCn1c(=O)c2cnc(Nc3ccc(N4CCN(C)CC4)cc3)nc2n1-c1ccc2c(n1)[C@@](O)(CC)CC2`?
A: GI50 [1]: 0.113 µM; TGI [1]: 20.5 µM; GI50 [2]: 1.75 µM; TGI [2]: 18.1 µM; GI50 [3]: 0.36 µM; TGI [3]: 6.96 µM; GI50 [4]: 494 nM; TGI [4]: 30.5 µM; GI50 [5]: 0.221 µM; TGI [5]: 0.888 µM; GI50 [6]: 0.333 µM; TGI [6]: 2.86 µM; GI50 [7]: 325 nM; TGI [7]: > 34.8 µM; GI50 [8]: 0.161 µM; TGI [8]: 36.8 µM; GI50 [9]: 0.576 µM; TGI [9]: 12 µM; GI50 [10]: 0.284 µM; TGI [10]: 4.48 µM
